Laboratory results published in patent US7488712B2, “Histone deacetylase inhibitors and methods for producing the same” (Kyushu Institute of Technology, priority 2002, dated 2009).
Read-outs that look alike come from different tables or passages of the source. Where a SMILES comes first, the peptide text is derived from it. [ ]: non-standard residue; d: D form. Gly((CH2)5SH) = N[C@@H](CCCCCS)C(=O)O

Tests used:
[1] = amide bond, 12-membered ring, HATU/DIEA, DMF
[2] = target: T1, human HDAC1 (Homo sapiens, UniProt Q13547); test: In vitro HDAC inhibition activity, [3H]-acetylated histone substrate, HDAC1; assay type: biochemical
T1 construct: FLAG; made in house; host or cells: 293T cells (transient transfection, anti-FLAG immunoprecipitation, FLAG peptide elution)
Description: (§1) To measure HDAC inhibition activity, an HDAC solution was prepared as described below. 1×10^7 of 293T cells were plated on to a 100-mm dish and, after 24 hours, transfected with vectors (1 μg) expressing human HDAC1 and HDAC4 or mouse HDAC6, using LipofectAmine 2000 reagent (Life Technologies, Inc. Gaithersburg, Md.). […] The vectors were introduced for five hours in OPTI-MEM. The medium was then replaced with Dulbecco's modified Eagle's medium (DMEM), and incubated for 19 hours. The cells were washed with PBS, suspended in lysis buffer (50 mM Tris-HCl (pH7.5), 120 mM NaCl, 5 mM EDTA, and 0.5% Nonidet P-40), and sonicated. The supernatant was collected by centrifugation and nonspecific protein was removed using Protein A/G plus agarose beads (Santa Cruz Biotechnologies, Inc.). Anti-FLAG M2 antibodies (Sigma-Aldrich, Inc.) were added to the supernatant of cells expressing HDAC1 or HDAC4. Anti-HA antibodies (clone 3F10, Roche Molecular Biochemicals) were added to the supernatant of cells expressing HDAC6. Reaction in the respective mixtures was carried out at 4° C. for one hour. The resulting reaction mixtures were independently mixed with agarose beads and further reacted at 4° C. for one hour. The agarose beads were washed three times with lysis buffer and then washed once with HD buffer (20 mM Tris-HCl (pH8.0), 150 mM NaCl, 10% glycerol, and a complete protease inhibitor cocktail (Boehringer Mannheim, Germany)). […] The HDAC reaction solution was used for determining HDAC inhibition activity as shown below.
(§2) In vitro HDAC inhibition activity was evaluated as follows: A test compound was dissolved in DMSO and adjusted to 10 mM. This was used as an inhibitor stock solution. […] These reactions were stopped by adding 10 μl HCl. The [^3H] acetic acid excised by the enzyme reaction was extracted with ethyl acetate and subjected to radioactive dose measurement. As a negative control, the same procedure was carried out in which no inhibitor was added to the reaction system. The inhibition activity was expressed as a 50% inhibition concentration (“IC50 (nM)”) of the HDAC activity in the negative control (Tables 1 to 4).

[3] = target: T2, human HDAC4 (Homo sapiens, UniProt P56524); test: In vitro HDAC inhibition activity, [3H]-acetylated histone substrate, HDAC4; assay type: biochemical
T2 construct: FLAG; made in house; host or cells: 293T cells (transient transfection, anti-FLAG immunoprecipitation, FLAG peptide elution)
Description: as §1, §2

[4] = target: T3, mouse HDAC6 (Mus musculus, UniProt Q9Z2V5); test: In vitro HDAC inhibition activity, [3H]-acetylated histone substrate, HDAC6; assay type: biochemical
T3 construct: HA; made in house; host or cells: 293T cells (transient transfection, anti-HA immunoprecipitation, HA peptide elution)
T3 sequence (Q9Z2V5 1-1149): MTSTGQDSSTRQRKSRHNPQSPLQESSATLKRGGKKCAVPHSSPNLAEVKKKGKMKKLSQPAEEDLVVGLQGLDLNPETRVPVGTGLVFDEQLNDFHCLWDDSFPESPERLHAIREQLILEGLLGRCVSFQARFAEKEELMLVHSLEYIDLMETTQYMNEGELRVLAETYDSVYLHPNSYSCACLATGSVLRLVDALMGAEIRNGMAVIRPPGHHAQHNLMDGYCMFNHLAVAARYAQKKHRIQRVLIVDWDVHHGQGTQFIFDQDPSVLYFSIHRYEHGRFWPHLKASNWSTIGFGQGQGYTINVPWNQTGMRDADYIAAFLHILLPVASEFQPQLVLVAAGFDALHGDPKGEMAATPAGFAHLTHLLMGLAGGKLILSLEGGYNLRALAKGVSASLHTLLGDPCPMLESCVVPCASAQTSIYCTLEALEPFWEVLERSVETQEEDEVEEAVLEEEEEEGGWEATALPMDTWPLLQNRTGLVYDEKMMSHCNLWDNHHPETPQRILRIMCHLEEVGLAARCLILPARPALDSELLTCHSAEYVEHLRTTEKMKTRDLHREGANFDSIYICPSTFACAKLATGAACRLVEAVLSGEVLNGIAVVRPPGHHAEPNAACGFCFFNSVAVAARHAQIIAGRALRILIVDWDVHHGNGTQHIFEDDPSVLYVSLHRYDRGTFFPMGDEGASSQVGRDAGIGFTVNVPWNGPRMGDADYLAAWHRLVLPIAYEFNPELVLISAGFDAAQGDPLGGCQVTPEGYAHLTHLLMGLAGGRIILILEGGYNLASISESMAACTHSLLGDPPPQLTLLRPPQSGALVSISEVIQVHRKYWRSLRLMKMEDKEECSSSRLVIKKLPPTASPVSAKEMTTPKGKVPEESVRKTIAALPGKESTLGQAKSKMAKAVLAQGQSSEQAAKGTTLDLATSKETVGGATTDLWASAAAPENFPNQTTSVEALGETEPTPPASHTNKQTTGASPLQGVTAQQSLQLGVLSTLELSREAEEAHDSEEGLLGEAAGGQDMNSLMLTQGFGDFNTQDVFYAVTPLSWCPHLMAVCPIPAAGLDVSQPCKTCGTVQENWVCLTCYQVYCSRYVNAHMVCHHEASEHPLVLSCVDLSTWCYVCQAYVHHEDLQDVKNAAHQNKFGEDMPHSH
Description: as §1, §2

[5] = system: human wild-type p21 promoter; test: p21 promoter-inducing activity (luciferase) in MFLL-9 cells; assay type: cell-based
Description: The HDAC inhibition activity in vivo was measured using p21 promoter-inducing activity as an index, as shown below. The MFLL-9 cells employed for the experiments stably maintained fusion genes of human wild-type p21 promoter and luciferase (Dr. B. Vogelstaein). Using phenol red-free DMEM medium comprising 10% FBS, cultivation was carried out in a steam-saturated incubator at 37° C. with 5% carbon dioxide. The MFLL-9 cells were plated at a density of 85,000 cells/well on a 96-well microtiter plate, each in 99 μl of the above-mentioned medium. These were then cultivated for six hours. One μl of test compound solution was added to each well, which was then cultured for another 18 hours.
The intensity of luminescence caused by the product of the enzyme reaction for intracellular luciferase expression was measured using Luc Lite (Packard BioScience Company). A group in which test compounds were not added was used as a negative control group. The values measured for this group were used as a standard. The activities for each concentration of added test compound were expressed relative to the above-mentioned standard value, 1.

[6] = in vitro; settings: human, Cancer-Cell-Selective Cytotoxicity
Description: (§3) Human normal lung cells (TIG-3) and human uterine cancer cells (HeLa) were used to test SCOP cytotoxicity. These TIG-3 and HeLa cells were cultured in a DMEM medium comprising 10% FBS at 37° C. in the presence of 5% carbon dioxide in a steam-saturated incubator. The TIG-3 and HeLa cells were plated in 100 μl/well of the above-described medium on a 96-well microtiter plate, at a density of 30,000 cells/well and 10,000 cells/well respectively. This was then cultured for 18 hours. Test compound solution diluted with medium was added to each well and culture was continued for another 48 hours.
(§4) 30 μl of supernatant from each well was transferred to another 96-well microtiter plate (A), and the remaining supernatant was discarded. 100 μl of 0.5% Triton-X/PBS was added to each well to lyse the cells, and 30 μl was then transferred to each respective well of another 96-well microtiter plate (B). 30 μl of LDH-Cytotoxic Test (Wako) substrate solution was added to each well of these 96-well microtiter plates A and B, causing a color reaction. Once the color reaction was sufficiently progressed, it was stopped by adding 60 μl of a quenching solution. Color intensity was measured at OD560 nm using a microplate reader (Softmax). [A/(A+B)] was calculated as the free-LDH ratio. […] The higher the activity value for cancer-cell-selective cell damage (LD50 for normal cells/LD50 for cancer cells), the more that cancer-cell-selective apoptosis was induced.

[7] = system: human uterine cancer cells (HeLa); test: in vitro; settings: 48 h
Description: as §3, §4

[8] = Cytotoxicity test (free-LDH ratio), TIG-3; assay type: cell-based; settings: human, TIG-3 human normal lung cells
Description: This was then cultured for 18 hours.

[9] = Table 1, X = H (coexisting with DTT)
[10] = from H-dTyr(Me)-Ile-dPro-Ab6-OH, 9.7 mM

T1 sequence (Q13547 whole entry): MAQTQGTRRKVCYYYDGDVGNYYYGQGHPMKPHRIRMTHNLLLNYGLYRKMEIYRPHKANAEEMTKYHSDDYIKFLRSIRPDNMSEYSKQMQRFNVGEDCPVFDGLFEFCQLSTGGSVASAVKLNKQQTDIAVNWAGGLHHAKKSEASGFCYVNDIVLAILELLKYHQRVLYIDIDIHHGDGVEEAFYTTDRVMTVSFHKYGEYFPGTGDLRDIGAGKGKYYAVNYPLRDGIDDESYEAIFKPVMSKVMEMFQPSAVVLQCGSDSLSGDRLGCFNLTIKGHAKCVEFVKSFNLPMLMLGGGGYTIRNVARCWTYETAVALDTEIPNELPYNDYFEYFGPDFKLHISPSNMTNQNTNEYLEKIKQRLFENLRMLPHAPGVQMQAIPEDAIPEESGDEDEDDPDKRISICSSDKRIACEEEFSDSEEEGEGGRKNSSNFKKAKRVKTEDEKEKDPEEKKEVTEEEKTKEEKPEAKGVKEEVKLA
T2 sequence (O15379 whole entry partner): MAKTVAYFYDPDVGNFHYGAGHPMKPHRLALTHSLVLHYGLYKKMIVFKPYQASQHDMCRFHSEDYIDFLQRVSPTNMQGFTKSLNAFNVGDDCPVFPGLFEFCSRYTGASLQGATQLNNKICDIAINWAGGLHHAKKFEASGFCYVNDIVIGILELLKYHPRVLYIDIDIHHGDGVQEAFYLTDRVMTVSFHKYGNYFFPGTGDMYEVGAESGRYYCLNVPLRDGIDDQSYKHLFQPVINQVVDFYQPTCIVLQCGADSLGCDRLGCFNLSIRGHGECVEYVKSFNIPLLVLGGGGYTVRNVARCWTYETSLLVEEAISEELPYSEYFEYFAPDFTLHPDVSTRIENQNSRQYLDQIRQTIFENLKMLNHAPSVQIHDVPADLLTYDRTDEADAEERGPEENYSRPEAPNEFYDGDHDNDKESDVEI
T2 sequence (P56524 whole entry): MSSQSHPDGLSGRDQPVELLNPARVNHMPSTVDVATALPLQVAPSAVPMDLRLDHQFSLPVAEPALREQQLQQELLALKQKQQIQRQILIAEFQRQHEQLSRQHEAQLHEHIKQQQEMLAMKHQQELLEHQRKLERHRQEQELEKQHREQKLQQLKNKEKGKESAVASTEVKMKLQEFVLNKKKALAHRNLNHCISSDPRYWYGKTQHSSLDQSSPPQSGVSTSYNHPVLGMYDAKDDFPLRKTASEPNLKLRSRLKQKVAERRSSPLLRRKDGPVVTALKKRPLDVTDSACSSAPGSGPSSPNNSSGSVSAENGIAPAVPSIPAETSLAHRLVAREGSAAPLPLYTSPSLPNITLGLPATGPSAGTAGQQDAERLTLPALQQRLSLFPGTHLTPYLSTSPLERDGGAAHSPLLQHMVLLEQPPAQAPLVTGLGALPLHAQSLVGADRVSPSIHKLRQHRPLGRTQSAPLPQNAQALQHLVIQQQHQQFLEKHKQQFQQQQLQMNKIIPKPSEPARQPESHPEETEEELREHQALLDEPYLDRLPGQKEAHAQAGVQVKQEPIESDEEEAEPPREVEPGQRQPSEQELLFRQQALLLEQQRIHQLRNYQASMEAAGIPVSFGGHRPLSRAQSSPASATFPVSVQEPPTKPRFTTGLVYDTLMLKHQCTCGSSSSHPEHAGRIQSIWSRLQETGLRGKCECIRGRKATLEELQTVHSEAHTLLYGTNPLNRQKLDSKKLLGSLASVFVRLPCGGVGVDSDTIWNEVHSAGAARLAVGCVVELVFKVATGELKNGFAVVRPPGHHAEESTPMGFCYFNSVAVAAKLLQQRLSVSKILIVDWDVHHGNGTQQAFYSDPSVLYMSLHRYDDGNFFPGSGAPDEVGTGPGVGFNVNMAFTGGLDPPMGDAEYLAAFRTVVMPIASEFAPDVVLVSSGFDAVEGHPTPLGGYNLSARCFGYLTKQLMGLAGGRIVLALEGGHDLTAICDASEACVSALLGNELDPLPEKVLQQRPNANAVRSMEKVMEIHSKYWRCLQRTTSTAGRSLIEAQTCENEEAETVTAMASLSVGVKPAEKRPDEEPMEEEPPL

CC[C@H](C)[C@@H]1NC(=O)[C@@H](Cc2ccc(OC)cc2)NC(=O)[C@H](CCCCCCBr)NC(=O)[C@H]2CCCN2C1=O [cyclo(-L-Ab8-D-Tyr(Me)-L-Ile-D-Pro-)]
ring closure, isolated yield ([1]; from H-Ab8-dTyr(Me)-Ile-dPro-OH, 10.0 mM): 55%

CC[C@H](C)[C@@H]1NC(=O)[C@@H](Cc2ccc(OC)cc2)NC(=O)[C@H](CCCCCSSC)NC(=O)[C@H]2CCCN2C1=O [SCOP 405, cyclo(-L-Am7(SMe)-D-Tyr(Me)-L-Ile-D-Pro-)]
IC50 ([2]; Table 3, hybrid, without DTT): 119 nM | IC50 ([3]; Table 3, hybrid, without DTT): 405 nM | IC50 ([4]; Table 3, hybrid, without DTT): 191 nM | EC50 ([5]; Table 3, hybrid, without DTT): 3260 nM | selectivity ratio at 48 h ([6]; LD50 for normal cells/LD50 for cancer cells (TIG-3/HeLa), without DTT): 44.1 | LD50 (nM) HeLa [7]: 179 nM | CC50 at 48 h ([8]; 48 hours, free-LDH ratio 50%, without DTT, read-out: LD50 (nM) TIG-3): 7900 nM

CC[C@H](C)[C@@H]1NC(=O)[C@@H](Cc2ccc(OC)cc2)NC(=O)[C@H](CCCCCBr)NC(=O)[C@H]2CCCN2C1=O [H-Ab7-dTyr(Me)-Ile-dPro-OH]
ring closure, isolated yield ([1]; from H-Ab7-dTyr(Me)-Ile-dPro-OH, 10.2 mM): 64%

CC[C@H](C)[C@@H]1NC(=O)[C@@H](Cc2ccc(OC)cc2)NC(=O)[C@H](CCCCCBr)NC(=O)[C@@H]2CCCN2C1=O [cyclo(-L-Ab7-D-Tyr(Me)-L-Ile-L-Pro-)]
ring closure, isolated yield ([1]; from H-dTyr(Me)-Ile-Pro-Ab7-OH, 1.02 mM): 21%

CC[C@H](C)[C@@H]1NC(=O)[C@@H](Cc2ccc(OC)cc2)NC(=O)[C@H](CCCCCS)NC(=O)[C@H]2CCCN2C1=O [SCOP 152] (cyclo([Gly((CH2)5SH)][dY](Me)I[dP]))
IC50 [2, 9]: 4.6 nM | IC50 [3, 9]: 2.06 nM | IC50 [4, 9]: 1400 nM | EC50 ([5]; Table 1, X = H (coexisting with DTT), 50% of maximum active value for TSA): 309 nM | EC50 ([5]; Table 5, purified SCOP 152 under DTT-free conditions): 3510 nM | selectivity ratio at 48 h [6]: 18.3 | LD50 (nM) HeLa [7]: 370 nM | CC50 at 48 h ([8]; LD50 (nM) TIG-3): 6780 nM

CC[C@H](C)[C@@H]1NC(=O)[C@@H](Cc2ccc(OC)cc2)NC(=O)[C@H](CCCCOn2nnc3cccnc32)NC(=O)[C@H]2CCCN2C1=O [cyclo(-L-A(OAt)6-D-Tyr(Me)-L-Ile-D-Pro-)]
ring closure, isolated yield [1, 10]: 27%

CC[C@H](C)[C@@H]1NC(=O)[C@@H](Cc2ccc(OC)cc2)NC(=O)[C@H](CCCCOn2nnc3cccnc32)NC(=O)[C@H]2CCCN2C1=O [cyclo(-L-Ab6-D-Tyr(Me)-L-Ile-D-Pro-)]
ring closure, isolated yield [1, 10]: 23%

CC[C@H](C)[C@@H]1NC(=O)[C@@H](Cc2ccc(OC)cc2)NC(=O)[C@H](CCCCCBr)NC(=O)[C@@H]2CCCCN2C1=O [cyclo(-L-Ab7-D-Tyr(Me)-L-Ile-L-Pip-)]
ring closure, isolated yield ([1]; from H-dTyr(Me)-Ile-Pip-Ab7-OH?, 2.0 mM): 61%

CC[C@H](C)[C@@H]1NC(=O)[C@@H](Cc2ccc(OC)cc2)NC(=O)[C@H](CCCCCCCBr)NC(=O)[C@H]2CCCN2C1=O [cyclo(-L-Ab9-D-Tyr(Me)-L-Ile-D-Pro-)]
ring closure, isolated yield ([1]; from H-Ab9-dTyr(Me)-Ile-dPro-OH, 9.4 mM): 61%

CC[C@H](C)[C@@H]1NC(=O)[C@@H](Cc2ccc(OC)cc2)NC(=O)[C@H](CCCCCBr)NC(=O)[C@H]2CCCCN2C1=O [cyclo(-L-Ab7-D-Tyr(Me)-L-Ile-D-Pip-)]
ring closure, isolated yield ([1]; from H-dTyr(Me)-Ile-dPip-Ab7-OH?, 2.0 mM): 39%
